Reference: patent US11236055B2 (Venenum Biodesign, LLC, priority 2016, dated 2022)

Columns and labels:
[1] = biological target: T1, mouse TGR5 receptor (Mus musculus, UniProt Q80SS6); assay: Mouse TGR5 cAMP production assay (HTRF, Cisbio cAMP HiRange); format: cell-based; conditions: HEK293-EBNA cells overexpressing mouse TGR5, HTRF cAMP HiRange; coded A-D
T1 construct: expressed in transfected cells; host or cells: HEK293-EBNA (293 c18, ATCC CRL10852), Hygromycin B selection
T1 sequence (Q80SS6 1-329): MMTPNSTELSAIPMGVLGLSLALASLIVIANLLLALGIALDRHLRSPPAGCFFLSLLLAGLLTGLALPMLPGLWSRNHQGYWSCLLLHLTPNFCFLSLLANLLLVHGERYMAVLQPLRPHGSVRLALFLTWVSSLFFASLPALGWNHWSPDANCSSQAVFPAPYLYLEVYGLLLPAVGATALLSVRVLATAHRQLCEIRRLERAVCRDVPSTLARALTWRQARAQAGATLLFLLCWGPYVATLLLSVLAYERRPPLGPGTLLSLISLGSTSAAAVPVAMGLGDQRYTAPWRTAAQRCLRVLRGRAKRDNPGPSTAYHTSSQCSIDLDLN
Source text: Mouse TGR5 cAMP Production Assay
We evaluated compounds of the present invention for their ability to induce cAMP production in HEK-EBNA cells overexpressing the mouse TGR5 receptor. Human embryonic kidney cells (HEK293-EBNA) stably expressing mouse TGR5 receptor were established using the following procedure. Specifically, a commercially-obtained gene encoding mouse TGR5 (accession number BC116914) from Thermo Scientific (Waltham, Mass.) was cloned into an episomal expression vector. The resulting expression plasmid was then transfected into 293 c18 (ATCC® CRL10852™) cells, which express the Epstein-Barr virus nuclear antigen EBNA1 and can support the replication of episomal vectors. Selection for the plasmid was maintained with Hygromycin B. Cells were cultured and maintained in DMEM (Sigma; cat #6429) supplemented with 10% Fetal Bovine Serum, 1% penicillin/streptomycin, 2 mM L-alanine L-glutamine (GlutaMax), and 250 μg/mL Hygromycin.
2. HTRF cAMP Production Assay
In this second cAMP production assay, the cAMP production was measured in 384-well low volume plates (Greiner; cat #784075) using the Cisbio™ cAMP HiRange HTRF Assay Kit (Cisbio) according to the manufacturer's protocol.
Briefly, compounds were initially diluted in 100% DMSO (12-point serial dilution by half logs) in a 96-well plate and then were further diluted 1:50 in PBS containing 10 mM HEPES. 5 μL were transferred to the 384-well assay plate in duplicate. HEK293-EBNA cells stably overexpressing mouse TGR5 were harvested using non-enzymatic cell dissociation buffer (Sigma), spun down, then resuspended in serum-free DMEM with 500 μM IBMX at a density of 500,000 cells/mL. 5 μL of cell suspension was transferred to each well of the 384-well assay plate already containing compound. The plate was covered and incubated at room temperature for 1 hour. The d2-cAMP and anti-cAMP Ab-cryptate stock solutions were prepared as per kit instructions. Then 5 μL of each conjugate (d2 and cryptate) were added to each well of the assay plate. The plate was covered and incubated at room temperature for 1 hour. The plate was read on an Envision™ plate reader (Perkin Elmer).
(§1) In Table 33, EC50 values for both human and mouse cells were determined according to the TGR5 cAMP assays described above.

[2] = biological target: T2, human TGR5 receptor (Homo sapiens, UniProt Q8TDU6); assay: Human TGR5 cAMP production assay; format: cell-based; conditions: human TGR5, luminescent cAMP assay; coded A-D; read-out: Human TGR5 Lum. cAMP Activity (EC50)
T2 construct: host or cells: CHO-K1 (hTGR5-CHO cells)
T2 sequence (Q8TDU6 1-330): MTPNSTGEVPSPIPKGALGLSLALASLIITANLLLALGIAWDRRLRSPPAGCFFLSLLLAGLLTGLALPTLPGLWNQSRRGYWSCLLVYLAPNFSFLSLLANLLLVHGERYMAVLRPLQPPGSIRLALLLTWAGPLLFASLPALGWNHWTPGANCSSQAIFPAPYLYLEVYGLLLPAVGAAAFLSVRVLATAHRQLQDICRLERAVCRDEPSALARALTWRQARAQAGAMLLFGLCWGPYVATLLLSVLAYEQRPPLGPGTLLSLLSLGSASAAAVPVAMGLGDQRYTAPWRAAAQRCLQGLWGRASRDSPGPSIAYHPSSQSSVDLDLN
Method: Human TGR5 cAMP Production Assay
We evaluated the Compounds of the present invention for their ability to induce cAMP production using CHO-K1 cells overexpressing the human TGR5 receptor. CHO-K1 cells stably expressing human TGR5 receptor (accession number NM_001077194.1 (hTGR5) (i.e., hTGR5-CHO cells) were purchased from DiscoveRx Corporation (Fremont, Calif.). hTGR5-CHO cells were grown in Ham's F-12 media supplemented with 10% Fetal Bovine Serum, 1% Penicillin-Streptomycin, 2 mM L-Alanine L-Glutamine (Glutamax), and 800 μg/mL Geneticin selection. The cAMP production assay was performed using DiscoveRx's cAMP XS+ kit (Catalog No. 90-0075XL) following the manufacturer's recommended protocol. Briefly, hTGR5-CHO cells were harvested using non-enzymatic cell dissociation buffer (Sigma-Aldrich, St. Louis, Mo.) and 1×10^6 cells were combined in Phosphate-Buffered Saline (PBS) to a final volume of 496 μL to which 4 μL of 125 mM IBMX (Sigma-Aldrich, St. Louis, Mo.) was added. 500 μL of cAMP antibody solution was added to the harvested cells and incubated at room temperature for 20 min.
Test compounds were serially diluted (half-log dilutions) in DMSO and then further diluted 1:50 in PBS, 10 mM HEPES buffer. 2 μL of serially diluted compound was added to a 384-well low volume plate (Greiner; cat #784075) and centrifuged briefly. 2 μL of the cell/cAMP antibody mixture was then added to each compound-containing well and allowed to incubate at room temperature for one hour. Following incubation, the XS+ kits' ED/Lysis/CL Substrate Working Solution was prepared following the manufacturer's recommended protocol and 4 μL was added to each well of the plate. The plate was then incubated for one hour at room temperature. Following incubation, 4 μL of Enzyme Acceptor reagent was added to the plate and allowed to incubate overnight at room temperature. Luminescent signal was then detected using the Viewlux instrument (Perkin-Elmer, Waltham, Mass.).
as §1

EC50 [1] [nM] | EC50 [2] [nM] | SMILES
1000 to 30000 | 1000 to 30000 | COc1cnccc1-c1cc(CNS(=O)(=O)c2cccc(C(F)(F)F)c2)ccn1 [Compound 1BS]
< 100 | < 100 | CCc1cnccc1-c1cccc(C(C)(C)NS(=O)(=O)c2cccc(Cl)c2C)c1 [Compound 2BY]
1000 to 30000 | 100 to 999 | Cc1cnccc1-c1cccc([C@H](C)NS(=O)(=O)c2ccccc2N)c1 [Compound 10AA, (S)-2-amino-N-(1-(3-(3-methylpyridin-4-yl)phenyl)ethyl)benzenesulfonamide]
1000 to 30000 | < 100 | COc1cnccc1-c1cccc(C(C)(C)NS(=O)(=O)c2ccc(C(F)(F)F)cc2[N+](=O)[O-])c1 [Compound 2BJ]
100 to 999 | < 100 | Cc1cnccc1-c1cccc([C@H](C)N(CCCC(=O)NCCS(=O)(=O)O)S(=O)(=O)c2ccccc2C)c1 [Compound 20AQ, (S)-2-(4-(2-methyl-N-(1-(3-(3-methylpyridin-4-yl)phenyl)ethyl)phenylsulfonamido)butanamido)ethanesulfonic acid]
< 100 | < 100 | Cc1cnccc1-c1cccc(C(C)(C)N(CCCC(=O)N[C@@H](C)C(=O)O)S(=O)(=O)c2cccc(Cl)c2C)c1 [Compound 21AF, (S)-2-(4-(3-chloro-2-methyl-N-(2-(3-(3-methylpyridin-4-yl)phenyl)propan-2-yl)phenylsulfonamido)butanamido)propanoic acid]
100 to 999 | < 100 | Cc1c(Cl)cccc1S(=O)(=O)N(CCCC(=O)NCCS(=O)(=O)O)C(C)(C)c1cccc(-c2ccncc2CO)c1 [Compound 20AO, 2-(4-(3-chloro-N-(2-(3-(3-(hydroxymethyl)pyridin-4-yl)phenyl)propan-2-yl)-2-methylphenylsulfonamido)butanamido)ethanesulfonic acid]
1000 to 30000 | 100 to 999 | CC(C)(NS(=O)(=O)c1ccccc1C(F)(F)F)c1cccc(-c2ccc(=O)[nH]c2)c1 [Compound 3, N-(2-(3-(6-oxo-1,6-dihydropyridin-3-yl)phenyl)propan-2-yl)-2-(trifluoromethyl)benzenesulfonamide]
> 30000 | 1000 to 30000 | CC(C)(NS(=O)(=O)c1ccccc1C(F)(F)F)c1cccc(-c2ccc3[nH]cnc3c2)c1 [Compound 5AL, N-(2-(3-(1H-benzo[d]imidazol-5-yl)phenyl)propan-2-yl)-2-(trifluoromethyl)benzenesulfonamide]
1000 to 30000 | 100 to 999 | COc1cnccc1-c1cccc(CCNS(=O)(=O)c2ccccc2C(F)(F)F)c1 [Compound 1CF]
100 to 999 | < 100 | Cc1cnccc1-c1cccc([C@@H](C)NS(=O)(=O)c2ccccc2C(F)(F)F)c1 [Compound 5AT, (R)-N-(1-(3-(3-methylpyridin-4-yl)phenyl)ethyl)-2-(trifluoromethyl)benzenesulfonamide]
100 to 999 | < 100 | Cc1cnccc1-c1cccc([C@H](C)N(CCCC(=O)NCCNC(=O)NCCC(=O)O)S(=O)(=O)c2cccc(Cl)c2C)c1 [Compound 30, (S)-3-((3-Chloro-2-methylphenyl)sulfonyl)-2-(3-(3-methylpyridin-4-yl)phenyl)-7,12-dioxo-3,8,11,13-tetraazahexadecan-16-oic acid]
100 to 999 | < 100 | Cc1cnccc1-c1cccc([C@H](C)N(CCCC(=O)N[C@@H](CO)C(=O)O)S(=O)(=O)c2cccc(Cl)c2C)c1 [Compound 21AI, (S)-2-(4-(3-chloro-2-methyl-N-((S)-1-(3-(3-methylpyridin-4-yl)phenyl)ethyl)phenylsulfonamido)butanamido)-3-hydroxypropanoic acid]
100 to 999 | < 100 | Cc1cnccc1-c1cccc(C(CCC#N)NS(=O)(=O)c2ccccc2C(F)(F)F)c1 (centres unmarked) [Compound 6AD, N-(3-cyano-1-(3-(3-methylpyridin-4-yl)phenyl)-propyl)-2-(trifluoromethyl)benzenesulfonamide]
< 100 | 100 to 999 | Cc1cnccc1-c1cccc(C(C)(C)N(CCCC(=O)N[C@@H](CS(=O)(=O)O)C(=O)O)S(=O)(=O)c2cccc(Cl)c2C)c1 [Compound 21AA, (R)-2-(4-(3-chloro-2-methyl-N-(2-(3-(3-methylpyridin-4-yl)phenyl)propan-2-yl)phenylsulfonamido)butanamido)-3-sulfopropanoic acid]
< 100 | < 100 | COc1cnccc1-c1cccc(C(C)(C)NS(=O)(=O)c2cc(Cl)ccc2[N+](=O)[O-])c1 [Compound 2BH]
100 to 999 | < 100 | Cc1cnccc1-c1cccc(C(C)(C)NS(=O)(=O)c2cc(Br)ccc2C)c1 [Compound 2BW]
100 to 999 | 100 to 999 | Cc1cnccc1-c1cccc(CN(CCCNC(=O)NCS(=O)(=O)O)S(=O)(=O)c2cccc(Cl)c2C)c1 [Compound 28AI, (3-(3-(3-chloro-2-methyl-N-(3-(3-methylpyridin-4-yl)benzyl)phenylsulfonamido)propyl)ureido)methanesulfonic acid]
100 to 999 | < 100 | COc1cnccc1-c1cccc(C(C)(C)NS(=O)(=O)c2cc(Cl)ccc2Cl)c1 [Compound 2BE]
< 100 | < 100 | Cc1cnccc1-c1cccc([C@H](C)N(CCCC(=O)NCCS(=O)(=O)NCCC(=O)O)S(=O)(=O)c2ccccc2C(F)(F)F)c1 [Compound 20BI]
1000 to 30000 | < 100 | CC(C)(NS(=O)(=O)c1cccc(C(F)(F)F)c1)c1cccc(-c2ccncc2CO)c1 [Compound 5AE, N-(2-(3-(3-(hydroxymethyl)-pyridin-4-yl)phenyl)propan-2-yl)-3-(trifluoromethyl)benzenesulfonamide]
1000 to 30000 | 100 to 999 | Cc1cnccc1-c1cccc(CCNS(=O)(=O)c2ccccc2C(F)(F)F)c1 [Compound 5BD, N-(3-(3-methylpyridin-4-yl)phenethyl)-2-(trifluoromethyl)benzenesulfonamide]
